Where “and” joins values, the source holds several entries; their conditions need not be identical. Equal entries are not always repeated. Where two headings read alike, the source gives them in different places.
What was measured:
human plasma [1] = test system: human plasma
[2] = Abiotic loss in negative controls of the hepatocyte clearance assay (cell-free media, metabolically inactivated hepatocytes); type: in vitro ADME; conditions: for Hep_Stab_Fail: flag for stability failure in hepatocyte clearance assay controls (1 or Fst = fail, 0 = pass)
How it was run: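 Abiotic stability was checked with media-only and inactivated-hepatocyte controls, run at T0 and T240 or, on rerun, at more time points. Compound at 1 μM, 37 °C, acetonitrile quench. Loss rates served for background subtraction, and ≥50% loss by T120 meant exclusion.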

human plasma [3] = conditions: for % remaining_PPB / PPB_Stab_Fail: human, plasma
[4] = test system: pooled human cryopreserved primary hepatocyte suspensions; test: Hepatic metabolic stability (hepatocyte clearance) assay, substrate depletion; type: in vitro ADME
How it was run: (§1)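 Substrate depletion of 1 μM compound, 37 °C, with pooled human hepatocytes (50-donor, 50,000 cells/100 μL) in William's E; samples quenched in acetonitrile up to 240 min, triplicate time points. Intrinsic clearance (μL/min/million hepatocytes) and half-life derived from semi-log slope, background-adjusted using media-only and inactivated-cell controls; compounds with ≥50% abiotic loss at T120 excluded.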

[5] = as above; type: in vitro ADME, human; conditions: both sexes, human, hepatocytes
How it was run: as §1

[6] = In vitro-in vivo extrapolation (IVIVE) to Css and administered equivalent dose (AED); parameters: species or system human
Description: Using the experimentally generated PPB (fraction unbound in plasma, fup) and hepatic Clint data, IVIVE was performed as previously described to calculate human steady-state plasma concentrations (Css). Briefly, experimental measures of fup are adjusted using blood:plasma partitioning information to estimate the fraction unbound in blood (fub). Experimental hepatocyte Clint data are scaled up to represent whole-liver clearance (L/h). […] Once estimated, these Css values are considered in conjunction with published in vitro bioactivity concentrations (i.e., lowest-observed effective concentrations, or LOECs) to calculate AEDs (Table 2). See Table S10 for all relevant IVIVE inputs, scalars, calculations, and outputs.

human plasma [7] = test: Ultracentrifugation (UC) plasma protein binding assay, fraction unbound in plasma (fup)
human primary cells = conditions: cited from earlier work
human plasma [8] = test: Chemical stability in plasma over the UC assay time course (T5hr/T1hr)
in vitro = conditions: both, human, plasma
[9] = hepatocyte incubation, Rep 1-3, start conc 1000 nM
[10] = heat treated hepatocytes, Rep 1-3

SMILES: C=C(C)C(=O)OCC(F)(F)C(F)(F)C(F)(F)C(F)(F)C(F)(F)C(F)(F)C(F)(F)F [1H,1H-Perfluorooctyl methacrylate]
- Fup.Med (human plasma [1]): 0.0638
- Fup.point (human plasma [1]): 0.0665
- Mean fu (human plasma [1]; human, plasma): 0.1300
- Hep_Stab_Fail [2]: 1
- Fstable.Med (human plasma [3]): 0.042
- Unstable (human plasma [3]): Y
- % remaining_PPB (human plasma [3]): 49%
- PPB_Stab_Fail (human plasma [3]): 0

SMILES: C=C(C)C(=O)OCC(F)(F)C(F)(F)C(F)(F)F [1H,1H-Perfluorobutyl methacrylate]
- Fup.Med (human plasma [1]): 0.716
- Fup.point (human plasma [1]): 0.706
- Hep_Stab_Fail [2]: 1
- Fstable.Med (human plasma [3]): 0.0018
- Unstable (human plasma [3]): Y
- % remaining_PPB (human plasma [3]): 8%
- PPB_Stab_Fail (human plasma [3]): 1

SMILES: Cc1ccc(S(=O)(=O)OCC(F)(F)C(F)(F)C(F)(F)C(F)(F)C(F)(F)C(F)F)cc1 [1H,1H,7H-Perfluoroheptyl 4-methylbenzenesulfonate]
- Concentration (nM), Time 15 min [4, 9]: 1073.03 nM and 1187.92 nM and 943.206 nM
- Concentration (nM), Time 30 min [4, 9]: 985.478 nM and 1012.58 nM and 870.92 nM
- Concentration (nM), Time 60 min [4, 9]: 899.811 nM and 874.355 nM and 982.505 nM
- Linear Regression Results, Best-Fit Values, Slope ([4]; hepatocyte time course): -0.01549
- hepatocyte CLint at 1 μM ([5]; background-subtracted, read-out: Bkgd-Sub Clearance (µL/min/106 hepatocytes)): 23.9 µL/min/1e6 cells
- hepatocyte CLint at 1 μM ([5]; hepatocyte clearance, Conc 1000 nM, not background adjusted, read-out: Unadj Clint): 31 µL/min/1e6 cells
- hepatocyte CLint at 1 μM ([5]; pooled human hepatocyte suspensions, 1 μM, read-out: In Vitro Clint): 23.9 µL/min/1e6 cells
- hepatocyte CLint at 1 μM ([5]; unadjusted hepatocyte intrinsic clearance, read-out: Unadj in vitro Clint): 31 µL/min/1e6 cells
- hepatocyte CLint at 1 μM ([5]; hepatocyte time course, NS = slope not significant, read-out: Linear Regression Results, Best-Fit Values, Clearance): 31 µL/min/1e6 cells
- half-life at 1 μM ([5]; hepatocyte time course, NS = slope not significant, read-out: Linear Regression Results, Best-Fit Values, Half Life): 0.746 h
- Css ([6]; Assuming 1 mg/kg/day dose rate, BW 70 kg): 4.87 mg/L and 10.01 uM
- Clhep ([6]; IVIVE, hepatocyte Clint scaled to whole-liver clearance): 0.588 L/h
- AED ([6]; administered equivalent dose from LOEC and Css): 0.6995 mg/kg/day
- Fub ([6]; fub=fup/(B:P), Fub set to 1 if needed): 0.002357
- Css ([6]; human steady-state plasma concentration, assuming 1 mg/kg/day dosage): 10.01 µM
- CLint ([6]; scaled with HPGL 110 mill cells/g, Vl 1596 g): 4187106 µL/min
- half-life at 1 μM ([2]; both sexes, human, heat treated hepatocytes control, 0 vs 240 min, read-out: HT BkgdCl, Half Life): 2.62 h
- half-life at 1 μM ([2]; buffer, no cells control, 0 vs 240 min, read-out: No Cells BkgdCl, Half Life): 3.24 h
- Hep_Stab_Fail [2]: 0
- HT BkgdCl, Slope ([2]; heat treated hepatocytes control, 0 vs 240 min): -0.004413
- Negative Controls, Heat Treated (HT), concentration at 0 min [2, 10]: 1655.88 nM and 1540.88 nM and 2130.45 nM
- Negative Controls, Heat Treated (HT), concentration at 240 min [2, 10]: 752.335 nM and 712.914 nM and 422.601 nM
- No Cells BkgdCl, Slope ([2]; no cells control, 0 vs 240 min): -0.003563
- Negative Controls, No cells (NC), concentration at 0 min ([2]; no cells, Rep 1-3): 1381.59 nM and 1965.43 nM and 2200.38 nM
- Negative Controls, No cells (NC), concentration at 240 min ([2]; no cells, Rep 1-3): 723.371 nM and 790.633 nM and 803.182 nM
- fup (human plasma [7]; human plasma, 10 μM, ultracentrifugation, 37 °C): 0.0290
- Fup.Med (human plasma [7]; median fraction unbound in plasma, UC assay Level4): 0.116
- Fup.point (human plasma [7]; point estimate of fraction unbound in plasma, UC assay Level4): 0.0275
- Fraction Unbound (fu), replicates A, B, C (human plasma [7]; single replicate of one UC run (aqueous fraction / Time 5 hr)): 0.01902 and 0.02822 and 0.04008
- LOEC (human primary cells; BioSeek lowest-observed effect concentration used for AED): 7.00 µM
- LOEC (human primary cells; minimum lowest-observed effect concentration, BioSeek platform): 7 µM
- Stability (T5hr/ T1hr), Run-specific Avg (human plasma [8]; average of one UC run (run date in line above)): 0.983
- PPB_Stab_Fail (human plasma [8]; flag for stability failure in the plasma protein binding assay (1 = fail, 0 = pass)): 0
- Mean Stability (human plasma [8]; mean T5hr/T1hr ratio over all replicates and runs, plasma): 1.006
- Fstable.Med (human plasma [8]; median fraction stable in plasma, UC assay Level4): 1
- Stability (T5hr/ T1hr), replicates A, B, C (human plasma [8]; single replicate of one UC run): 0.9436 and 0.9774 and 1.0981
- fraction unbound (in vitro; Fraction Unbound (fu), Run-specific Avg, average of one UC run (run date in line above)): 0.03
- fraction unbound (in vitro; Mean fu, fraction unbound in human plasma, ultracentrifugation, some values based on eLOQ): 0.029
